According to ChEMBL document CHEMBL4041541, “Solvent free, catalyst free, microwave or grinding assisted synthesis of bis-cyclic imide derivatives and their evaluation for anticancer activity” (Bioorg Med Chem Lett, 2017):
pIC50: −log10 of the molar value.

How the values were obtained:
[1] = test system: HCT-15; assay: Growth inhibition of human HCT15 cells at 1 x 10^-5 M after 24 hrs by MTT assay relative to control; assay type: functional; conditions: HCT-15, 24 h, read-out: GI
[2] = test system: PA-1; assay: Growth inhibition of human PA1 cells at 1 x 10^-5 M after 24 hrs by MTT assay relative to control; assay type: functional; conditions: PA-1, 24 h, read-out: GI
[3] = test system: HepG2; assay: Growth inhibition of human HepG2 cells at 1 x 10^-5 M after 24 hrs by MTT assay relative to control; assay type: functional; conditions: HepG2, 24 h, read-out: GI
[4] = test system: NCI-H522; assay: Growth inhibition of human NCI-H522 cells at 1 x 10^-5 M after 24 hrs by MTT assay relative to control; assay type: functional; conditions: NCI-H522, 24 h, read-out: GI
[5] = test system: T47D; assay: Growth inhibition of human T47D cells at 1 x 10^-5 M after 24 hrs by MTT assay relative to control; assay type: functional; conditions: read-out: GI
[6] = Selectivity index, ratio of IC50 for HEK293T cells to IC50 for human T47D cells; assay type: functional
[7] = test system: HepG2; assay: Growth inhibition of human HepG2 cells after 24 hrs by MTT assay; assay type: functional, cell-based; conditions: HepG2, 24 h
[8] = Selectivity index, ratio of IC50 for HEK293T cells to IC50 for human PA1 cells; assay type: functional
[9] = test system: HCT-15; assay: Growth inhibition of human HCT15 cells after 24 hrs by MTT assay; assay type: functional, cell-based; conditions: HCT-15, 24 h
[10] = test system: PA-1; assay: Growth inhibition of human PA1 cells after 24 hrs by MTT assay; assay type: functional, cell-based; conditions: PA-1, 24 h
[11] = test system: NCI-H522; assay: Growth inhibition of human NCI-H522 cells after 24 hrs by MTT assay; assay type: functional, cell-based; conditions: NCI-H522, 24 h
[12] = Selectivity index, ratio of IC50 for HEK293T cells to IC50 for human NCI-H522 cells; assay type: functional
[13] = test system: HEK-293T; assay: Growth inhibition of HEK293T cells after 24 hrs by MTT assay; assay type: cell-based; conditions: Homo sapiens
[14] = Selectivity index, ratio of IC50 for HEK293T cells to IC50 for human HepG2 cells; assay type: functional
[15] = test system: T47D; assay: Growth inhibition of human T47D cells after 24 hrs by MTT assay; assay type: functional, cell-based
[16] = Selectivity index, ratio of IC50 for HEK293T cells to IC50 for human HCT15 cells; assay type: functional

Row | SMILES | inhibition of growth at 10 µM [1] [%] | inhibition of growth at 10 µM [2] [%] | inhibition of growth at 10 µM [3] [%] | inhibition of growth at 10 µM [4] [%] | inhibition of growth at 10 µM [5] [%] | Ratio IC50 [6] | pIC50 [7] | Ratio IC50 [8] | pIC50 [9] | pIC50 [10] | pIC50 [11] | Ratio IC50 [12] | pIC50 [13] | Ratio IC50 [14] | pIC50 [15] | Ratio IC50 [16]
1 | O=C1C2CCCCC2C(=O)N1CCCC1OCC2(CO1)COC(CCCN1C(=O)C3CCCCC3C1=O)OC2 (stereo not given) | 21 | 15 | 13 | 28 | 11 |  |  |  |  |  |  |  |  |  |  | 
2 | CC(CN1C(=O)c2nc[nH]c2C1=O)N1C(=O)c2nc[nH]c2C1=O (stereo not given) | 30 | 20 | 36 | 3 | 32 |  |  |  |  |  |  |  |  |  |  | 
3 | O=C1Cc2ccccc2C(=O)N1CCCN1CCN(CCCN2C(=O)Cc3ccccc3C2=O)CC1 | 1 | 0 | 7 | 6 | 5 |  |  |  |  |  |  |  |  |  |  | 
4 | O=C1CNCC(=O)N1CCCN1C(=O)CNCC1=O | 2 | 19 | 35 | 30 | 31 |  |  |  |  |  |  |  |  |  |  | 
5 | O=C1c2nccnc2C(=O)N1CCCN1C(=O)c2nccnc2C1=O | 5 | 16 | 1 | 0 | 13 |  |  |  |  |  |  |  |  |  |  | 
6 | O=C1c2nc[nH]c2C(=O)N1CCN1C(=O)c2nc[nH]c2C1=O | 33 | 24 | 38 | 56 | 21 | 2.5 - 4.5 | 4.62 | 2.5 - 4.5 | 4.75 | 4.76 | 4.48 | 2.5 - 4.5 | 4.20 | 2.5 - 4.5 | 4.72 | 2.5 - 4.5
7 | O=C1C2CCCCC2C(=O)N1CCCN1CCN(CCCN2C(=O)C3CCCCC3C2=O)CC1 (stereo not given) | 8 | 6 | 19 | 9 | 11 |  |  |  |  |  |  |  |  |  |  | 
8 | CC(CN1C(=O)Cc2ccccc2C1=O)N1C(=O)Cc2ccccc2C1=O (stereo not given) | 11 | 3 | 21 | 16 | 26 |  |  |  |  |  |  |  |  |  |  | 
9 | O=C1Cc2ccccc2C(=O)N1CCCC1OCC2(CO1)COC(CCCN1C(=O)Cc3ccccc3C1=O)OC2 (stereo not given) | 12 | 0 | 5 | 0 | 1 |  |  |  |  |  |  |  |  |  |  | 
10 | O=C1CNCC(=O)N1CCCC1OCC2(CO1)COC(CCCN1C(=O)CNCC1=O)OC2 (stereo not given) | 21 | 12 | 37 | 25 | 31 |  |  |  |  |  |  |  |  |  |  | 
11 | O=C1CNCC(=O)N1CCOCCOCCN1C(=O)CNCC1=O | 0 | 0 | 0 | 3 | 1 |  |  |  |  |  |  |  |  |  |  | 
12 | O=C1C2CC=CCC2C(=O)N1CCCC1OCC2(CO1)COC(CCCN1C(=O)C3CC=CCC3C1=O)OC2 (stereo not given) | 11 | 7 | 25 | 19 | 39 |  |  |  |  |  |  |  |  |  |  | 
13 | O=C1c2nccnc2C(=O)N1CCCN1CCN(CCCN2C(=O)c3nccnc3C2=O)CC1 | 10 | 18 | 20 | 19 | 15 |  |  |  |  |  |  |  |  |  |  | 
14 | O=C1c2nc[nH]c2C(=O)N1CCOCCOCCN1C(=O)c2nc[nH]c2C1=O | 27 | 19 | 49 | 32 | 37 |  |  |  |  |  |  |  |  |  |  | 
15 | O=C1C2CCCCC2C(=O)N1CCOCCOCCN1C(=O)C2CCCCC2C1=O (stereo not given) | 51 | 25 | 37 | 29 | 31 |  | 4.56 |  | 4.62 | 4.72 | 4.49 |  | < 4.00 |  | 4.80 | 
16 | O=C1Cc2ccccc2C(=O)N1CCOCCOCCN1C(=O)Cc2ccccc2C1=O | 0 | 0 | 1 | 5 | 1 |  |  |  |  |  |  |  |  |  |  | 

Row | SMILES | inhibition of growth at 10 µM [1] [%] | inhibition of growth at 10 µM [2] [%] | inhibition of growth at 10 µM [3] [%] | inhibition of growth at 10 µM [4] [%] | inhibition of growth at 10 µM [5] [%] | Ratio IC50 [6] | pIC50 [7] | Ratio IC50 [8] | pIC50 [9] | pIC50 [10] | pIC50 [11] | Ratio IC50 [12] | pIC50 [13] | Ratio IC50 [14] | pIC50 [15] | Ratio IC50 [16]
17 | O=C1c2nccnc2C(=O)N1CCN1C(=O)c2nccnc2C1=O | 39 | 4 | 7 | 30 | 11 |  |  |  |  |  |  |  |  |  |  | 
18 | CC(CN1C(=O)CNCC1=O)N1C(=O)CNCC1=O (stereo not given) | 12 | 3 | 22 | 16 | 20 |  |  |  |  |  |  |  |  |  |  | 
19 | CC(CN1C(=O)c2nccnc2C1=O)N1C(=O)c2nccnc2C1=O (stereo not given) | 21 | 1 | 1 | 4 | 6 |  |  |  |  |  |  |  |  |  |  | 
20 | O=C1Cc2ccccc2C(=O)N1CCN1C(=O)Cc2ccccc2C1=O | 6 | 9 | 4 | 16 | 8 |  |  |  |  |  |  |  |  |  |  | 
21 | O=C1c2nc[nH]c2C(=O)N1CCCN1C(=O)c2nc[nH]c2C1=O | 21 | 17 | 34 | 10 | 35 |  |  |  |  |  |  |  |  |  |  | 
22 | O=C1CNCC(=O)N1CCCN1CCN(CCCN2C(=O)CNCC2=O)CC1 | 14 | 29 | 21 | 19 | 24 |  |  |  |  |  |  |  |  |  |  | 
23 | O=C1Cc2ccccc2C(=O)N1CCCN1C(=O)Cc2ccccc2C1=O | 7 | 15 | 5 | 1 | 11 |  |  |  |  |  |  |  |  |  |  | 
24 | O=C1c2nccnc2C(=O)N1CCCC1OCC2(CO1)COC(CCCN1C(=O)c3nccnc3C1=O)OC2 (stereo not given) | 35 | 20 | 53 | 43 | 49 | 2.5 - 4.5 | 4.91 | 2.5 - 4.5 | 4.64 | 4.36 | 4.55 | 2.5 - 4.5 | 4.25 | 2.5 - 4.5 | 4.70 | 2.5 - 4.5
25 | O=C1c2nc[nH]c2C(=O)N1CCCC1OCC2(CO1)COC(CCCN1C(=O)c3nc[nH]c3C1=O)OC2 (stereo not given) | 11 | 15 | 31 | 27 | 19 |  |  |  |  |  |  |  |  |  |  | 
26 | O=C1c2nc[nH]c2C(=O)N1CCCN1CCN(CCCN2C(=O)c3nc[nH]c3C2=O)CC1 | 0 | 0 | 1 | 2 | 0 |  |  |  |  |  |  |  |  |  |  | 
27 | O=C1CNCC(=O)N1CCN1C(=O)CNCC1=O | 30 | 20 | 15 | 30 | 38 |  |  |  |  |  |  |  |  |  |  | 
28 | O=C1C2CC=CCC2C(=O)N1CCCN1CCN(CCCN2C(=O)C3CC=CCC3C2=O)CC1 (stereo not given) | 18 | 10 | 39 | 37 | 29 |  |  |  |  |  |  |  |  |  |  | 
29 | O=C1c2nccnc2C(=O)N1CCOCCOCCN1C(=O)c2nccnc2C1=O | 47 | 38 | 6 | 35 | 39 |  |  |  |  |  |  |  |  |  |  | 
30 | C[C@@H]1C[C@@H]([C@H](O)CC2CC(=O)NC(=O)C2)C(=O)[C@@H](C)C1 [CYCLOHEXIMIDE] | 21 | 33 | 21 | 18 | 23 |  | 4.26 |  | 4.28 |  | 4.21 |  | < 4.00 |  |  | 
31 | O=P1(N(CCCl)CCCl)NCCCO1 (stereo not given) [CYCLOPHOSPHAMIDE ANHYDROUS] | 10 | 24 | 22 | 11 | 23 |  | 4.28 |  | 4.12 |  | 4.16 |  | < 4.00 |  | 4.16 | 
32 | O=c1[nH]cc(F)c(=O)[nH]1 [FLUOROURACIL] | 12 | 7 | 17 | 27 | 24 |  | 4.48 |  |  |  | 4.25 |  | < 4.00 |  |  | 
